US20250152577A1, “Pharmaceutical Composition of Ethidium Bromide and Use in Treating Cancer” (RUIJIN HOSPITAL, SHANGHAI JIAOTONG UNIVERSITY SCHOOL OF …, priority 2022, published 2025)

Test system: AOM+DSS-induced colorectal tumor
Experiment: AOM+DSS-induced spontaneous colorectal cancer mouse model
Assay type: in vivo, mice
Conditions: zalcitabine 33 mg/Kg alone, one month
Description: The classical intraperitoneal injection of AOM and the spontaneous colorectal cancer formation by three rounds of DSS were utilized to construct a tumor mouse model. Mice were treated with ethidium bromide (500 mg/L dissolved in drinking water) one week after completion of the construction. […] Mice were sacrificed and their colorectum was taken for photographic observation and fixed staining.
To further verify the above results, we then expanded the sample size to about 10-16 mice per group and still used the above AOM+DSS protocol to induce spontaneous colorectal cancer formation in mice. […] Meanwhile, since it has been reported that zalcitabine (ddC) can effectively impair the function of mitochondria (mainly the replication of mtDNA, similar to ethidium bromide), we added the experimental group of zalcitabine (33 mg/Kg) as a control.
In addition, in order to investigate in what way ethidium bromide clears tumors in mice, we also tested cell proliferation (FIGS. 8A and B) and apoptosis (FIG. 8C-F) in tumor tissues and normal tissues surrounding the tumors in different treatment groups. Among them, cell proliferation was detected by immunohistochemistry of Ki67-positive cells, and apoptosis was detected by immunofluorescence staining of cleaved Caspase3.
To further verify whether ethidium bromide is still effective against already existing larger tumors (advanced colorectal cancer), we set aside a group of control mice (started administration 5 weeks after the end of induction, equivalent to the control group of mice described above) to administer them by gavage (20 mg/Kg per day).
We investigated the mechanism of ethidium bromide-induced apoptosis in tumor cells. First, tumor tissues treated with ethidium bromide (mice shown in FIGS. 7 and 8, treated for 4 weeks at 20 mg/Kg per day) were subjected to SDS-Loading buffer boiling lysis and tested for associated signaling pathways by Western blotting.

Nc1ccn([C@H]2CC[C@@H](CO)O2)c(=O)n1 [zalcitabine, reference compound]
effect on spontaneous colorectal tumors: had no effect
